Counter-ions that a name gives are not always drawn. Like-named read-outs stand apart in the source and are kept apart here.
Key:
[1] = target: T1, human plasmin (Homo sapiens, UniProt P00747); assay: Antiplasmin activity: inhibition of S-2251 decomposition; format: biochemical; conditions: Table 2; substrate S-2251, pH 7.4, 37° C.
Description: An inhibitor sample is dissolved in a 0.05 M Tris-hydrochloric acid buffer solution (pH=7.4) to make the total volume to 400 μl. […] Then, 50 μl of a 0.2 casein unit/ml human plasmin is added and the mixture is incubated at a temperature of 37° C. for 4 minutes. Thereafter, the reaction is stopped by adding 50 μl of 50% acetic acid.
Thus, the concentration I50 (μmol) of the inhibitor sample, at which the absorbance is one half (i.e., 1/2) of that obtained in the absence of the inhibitor, is determined.

[2] = target: T1, human plasmin; assay: Antiplasmin activity: inhibition of fibrin decomposition; format: biochemical; conditions: Table 2, pH 7.4, 37° C., read-out: Plasmin Fibrin I50 (concentration doubling fibrin dissolution time)
Description: (i) Determination of inhibition activity for fibrin decomposition
An inhibitor sample is dissolved in a 0.18 M borate-physiological salt buffer solution (pH=7.4) to make the total volume to 600 μl. To this buffer solution, 200 μl of a 0.2% bovine fibrinogen, 100 μl of a 0.3 casein unit/ml human plasmin solution, and 100 μl of a 50 unit/ml bovine thrombin solution, all dissolved in the above-mentioned buffer, are added at a temperature of 37° C. in a constant temperature bath. Then, the dissolution time of the fibrin mass formed above is determined.

[3] = target: T2, bovine thrombin (Bos taurus, UniProt P00735); assay: Antithrombin activity: inhibition of S-2238 decomposition; format: biochemical; conditions: Table 2; substrate S-2238, pH 8.3, 37° C.; read-out: Thrombin S-2238 I50
T2 construct: a 0.2 unit/ml bovine thrombin solution
Description: An inhibitor sample is dissolved in a 0.05 M Tris-hydrochloric acid buffer solution (pH=8.3) to make a total volume of 400 μl. […] Thus, the concentration I50 (μmol) of the inhibitor sample at which the absorbance is one half (i.e., 1/2) of that obtained in the absence of the inhibitor sample, is determined.

[4] = target: T2, bovine thrombin; assay: Antithrombin activity: inhibition of fibrin formation (fibrinogen); format: biochemical; conditions: Table 2; bovine fibrinogen, pH 7.4, 37° C.; read-out: Thrombin Fibrinogen I50 (concentration doubling coagulation time)
Description: (i) Determination of inhibition activity against fibrin formation
An inhibitor sample is dissolved in a 0.18 M borate-physiological salt buffer solution (pH= 7.4) to make the total volume to 500 μl. […] Thus, a coagulation time is determined. The inhibitor concentration I50 (μmol), at which the coagulation time obtained in the absence of the inhibitor is extended twice, is determined.

[5] = target: T3, bovine trypsin (Bos taurus, UniProt P00760); assay: Antitrypsin activity: inhibition of S-2238 decomposition; format: biochemical
T3 sequence (P00760 24-246): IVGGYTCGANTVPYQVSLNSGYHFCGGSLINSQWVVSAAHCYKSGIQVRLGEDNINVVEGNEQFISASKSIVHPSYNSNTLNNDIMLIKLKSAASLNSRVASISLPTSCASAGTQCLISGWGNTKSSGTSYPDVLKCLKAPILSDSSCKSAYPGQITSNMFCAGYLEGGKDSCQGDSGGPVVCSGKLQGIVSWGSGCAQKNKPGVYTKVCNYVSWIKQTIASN
Description: Determination of inhibition activity against S-2238 decomposition
An inhibitor sample is dissolved in a 0.05 M Tris-imidazole buffer solution (pH=8.1) and 125 μl of a 1 mM S-2238 solution is added to make the total volume to 1.20 ml. The mixture is incubated at a temperature of 37° C. for 5 minutes in a constant temperature bath. To this mixture, 0.05 ml of bovine trypsin is added and the absorbance, at 405 nm, of the p-nitroaniline formed per minute is determined at a temperature of 37° C. by using the so-called initial velocity method. Thus, the concentration I50 (μmol) of a inhibitor sample, at which the absorbance is one half (i.e., 1/2) of that obtained in the absence of the inhibitor sample, is determined.

[6] = target: human plasma kallikrein (Homo sapiens, UniProt P03952); assay: Anti-plasma kallikrein activity: inhibition of S-2302 decomposition; format: biochemical
Sequence of human plasma kallikrein (P03952 391-638 limits assumed): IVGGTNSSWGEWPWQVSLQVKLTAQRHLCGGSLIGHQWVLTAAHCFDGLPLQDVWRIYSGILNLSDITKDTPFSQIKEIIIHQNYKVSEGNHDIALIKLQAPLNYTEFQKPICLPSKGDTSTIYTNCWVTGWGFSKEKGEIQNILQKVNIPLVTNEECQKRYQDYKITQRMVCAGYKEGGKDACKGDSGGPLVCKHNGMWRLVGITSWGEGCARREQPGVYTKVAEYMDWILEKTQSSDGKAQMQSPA
Sequence of human plasma kallikrein (P03952 20-390 limits assumed): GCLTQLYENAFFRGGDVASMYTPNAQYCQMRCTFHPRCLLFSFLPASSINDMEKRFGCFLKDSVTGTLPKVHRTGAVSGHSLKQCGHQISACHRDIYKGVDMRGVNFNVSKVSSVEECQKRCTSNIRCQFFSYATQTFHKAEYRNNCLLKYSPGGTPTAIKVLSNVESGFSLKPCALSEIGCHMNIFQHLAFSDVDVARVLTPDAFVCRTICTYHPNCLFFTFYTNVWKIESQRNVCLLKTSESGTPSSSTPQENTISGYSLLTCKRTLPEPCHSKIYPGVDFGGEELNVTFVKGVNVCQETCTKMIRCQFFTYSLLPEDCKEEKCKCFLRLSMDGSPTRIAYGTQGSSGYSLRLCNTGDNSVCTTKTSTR
Description: Determination of inhibition activity for S-2302 decomposition
(§1) An inhibitor sample is dissolved in a 0.05 M Tris-hydrochloric acid buffer solution (pH=7.8) to make the total volume to 400 μl. To this solution, 50 μl of a 2 mM S-2302 solution is added and the mixture is incubated at a temperature of 37° C. for 5 minutes in a constant temperature bath. Then, 50 μl of a 0.12 unit/ml human plasma kallikrein is added and the mixture is incubated at a temperature of 37° C. for 5 minutes. Thereafter, 50 μl of 50% acetic acid is added to terminate the reaction. The absorbance of the p-nitroaniline formed in the reaction mixture is measured at 405 nm. Thus, the concentration I50 (μmol) of the inhibitor sample, at which the absorbance is one half (i.e., 1/2) of that obtained in the absence of the inhibitor sample, is determined.

[7] = target: human urokinase (Homo sapiens, UniProt P00749); assay: biochemical
Description: Determination of inhibition activity for S-2444 decomposition
as §1, with “solution (pH=8.8)” for “solution (pH=7.8)”, “a 1” for “a 2”, “mM S-2444” for “mM S-2302”, “a 500” for “a 0.12”, “human urokinase” for “human plasma kallikrein”

[8] = background statement; cited from earlier work
[9] = background statement; cited from earlier work; remark: listed apart in the source
[10] = background statement; cited from earlier work; remark: listed apart in the source
[11] = background statement; cited from earlier work; remark: listed apart in the source
[12] = Table 2, substrate S-2238, pH 8.1, 37° C., read-out: Trypsin S-2238 I50
[13] = Table 2, substrate S-2302, pH 7.8, 37° C., read-out: Plasma Kallikrein S-2302 I50
[14] = Table 2, substrate S-2444, pH 8.8, 37° C., read-out: Urokinase S-2444 I50

T1 sequence (P00747 581-810 limits assumed): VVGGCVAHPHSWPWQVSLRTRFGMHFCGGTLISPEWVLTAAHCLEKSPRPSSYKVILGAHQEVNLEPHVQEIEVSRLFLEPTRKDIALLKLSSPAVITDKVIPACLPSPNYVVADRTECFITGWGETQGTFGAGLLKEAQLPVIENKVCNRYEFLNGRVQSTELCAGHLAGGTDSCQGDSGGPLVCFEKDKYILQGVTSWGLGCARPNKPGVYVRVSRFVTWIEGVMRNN
T1 sequence (P00747 97-580 limits assumed): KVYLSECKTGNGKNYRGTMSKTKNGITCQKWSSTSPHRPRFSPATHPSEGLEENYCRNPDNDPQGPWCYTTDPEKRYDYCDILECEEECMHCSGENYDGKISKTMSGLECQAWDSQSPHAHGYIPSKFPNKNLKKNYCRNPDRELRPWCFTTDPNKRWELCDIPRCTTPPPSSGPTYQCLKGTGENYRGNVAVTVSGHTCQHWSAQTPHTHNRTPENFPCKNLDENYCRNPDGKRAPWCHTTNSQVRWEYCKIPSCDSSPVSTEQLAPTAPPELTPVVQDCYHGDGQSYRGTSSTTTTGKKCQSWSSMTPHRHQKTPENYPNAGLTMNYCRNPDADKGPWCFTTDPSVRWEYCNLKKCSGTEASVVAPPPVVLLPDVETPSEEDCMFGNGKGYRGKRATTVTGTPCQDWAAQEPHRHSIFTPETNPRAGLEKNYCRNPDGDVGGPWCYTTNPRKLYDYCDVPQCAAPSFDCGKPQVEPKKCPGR

CC(=O)c1ccc(NC(=O)C(Cc2cccc(Oc3ccccc3)c2)NC(=O)[C@H]2CC[C@H](CN)CC2)cc1 (mixture of isomers) [Compound 2, N-(trans-4-aminomethylcyclohexylcarbonyl)-3-phenoxy-DL-phenylalanine 4-acetylanilide hydrochloride]
IC50 [1]: 19 µM | IC50 [2]: 14 µM | IC50 [3]: > 100 µM | IC50 [4]: > 100 µM | IC50 [5, 12]: 2.3 µM | IC50 [6, 13]: 0.38 µM | IC50 [7, 14]: 110 µM

NC[C@H]1CC[C@H](C(=O)NC(Cc2cccc(Oc3ccccc3)c2)C(=O)Nc2ccncc2)CC1 (mixture of isomers) [Compound 8, N-(trans-4-aminomethylcyclohexylcarbonyl)-3-phenoxy-DL-phenylalanine 4-pyridylamide dihydrochloride]
IC50 [1]: 65 µM | IC50 [2]: 24 µM | IC50 [3]: > 100 µM | IC50 [4]: > 400 µM | IC50 [5, 12]: 8.8 µM | IC50 [6, 13]: 0.83 µM | IC50 [7, 14]: 87 µM

N=C(N)c1ccc2cc(OC(=O)c3ccc(N=C(N)N)cc3)ccc2c1 [FUT-175, reference compound]
IC50 [5]: 0.27 µM | IC50 [6]: 0.076 µM | IC50 [7]: 0.013 µM | half life in vivo [8]: short | hypotensive action [9]: large | LD50 value [10]: small

Aprotinin
side effects when administered to humans [11]: side effects such as allergic reactions

From patent US4873253A, “Phenylalanine derivative and proteinase inhibitor” (Okamoto; Shosuke, priority 1987, dated 1989)
